According to patent US20160016951A1 (Merck Patent GmbH, priority 2014, published 2016):

These compounds were tested against T1, CDK8 (CDK8/CycC) (Homo sapiens, UniProt P49336) (assay: FRET based Lanthascreen binding competition assay). Conditions: 5 nM CDK8/CycC, 10 nM Alexa647-Tracer, 1% DMSO, 60 min at RT; read-out: IC50 CDK8 binding.
T1 construct: purchased Invitrogen PV4402
Method in brief: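 CDK8 co-expressed with CycC and labelled through biotinylated anti-His antibody and streptavidin-Eu was preincubated with compound for 20 min at RT. An Alexa647 ATP-competitive probe was then added for 60 min at RT in the dark. Probe displacement was read as loss of TR-FRET (excitation 340 nm, emission 650 nm).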

T1 sequence (P49336 whole entry): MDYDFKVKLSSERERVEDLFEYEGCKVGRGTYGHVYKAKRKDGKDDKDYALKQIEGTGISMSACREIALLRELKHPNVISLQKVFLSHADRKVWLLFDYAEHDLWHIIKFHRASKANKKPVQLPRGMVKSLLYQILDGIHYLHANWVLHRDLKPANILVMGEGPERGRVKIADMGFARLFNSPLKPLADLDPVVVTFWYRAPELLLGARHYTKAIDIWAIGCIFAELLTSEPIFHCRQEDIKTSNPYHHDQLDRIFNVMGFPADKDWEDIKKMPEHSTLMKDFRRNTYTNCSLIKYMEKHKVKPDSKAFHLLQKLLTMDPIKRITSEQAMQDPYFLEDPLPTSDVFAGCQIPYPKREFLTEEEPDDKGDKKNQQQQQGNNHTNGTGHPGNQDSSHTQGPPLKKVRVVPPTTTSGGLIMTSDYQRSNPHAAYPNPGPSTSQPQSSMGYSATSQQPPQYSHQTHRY
T1 sequence (P24863 whole entry partner): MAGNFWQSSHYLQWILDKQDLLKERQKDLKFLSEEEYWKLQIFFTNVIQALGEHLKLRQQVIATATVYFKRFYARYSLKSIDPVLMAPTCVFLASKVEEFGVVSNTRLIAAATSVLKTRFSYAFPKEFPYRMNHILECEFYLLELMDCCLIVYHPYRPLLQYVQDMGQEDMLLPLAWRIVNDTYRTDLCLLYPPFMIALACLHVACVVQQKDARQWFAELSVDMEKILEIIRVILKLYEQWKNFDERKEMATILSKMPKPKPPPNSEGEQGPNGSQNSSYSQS

| Structure (SMILES) | IC50 |
| --- | --- |
| Cn1cc(-c2ccc(-c3c(Cl)ncc4ccc(C(N)=O)nc34)cc2)cn1 [Compound 66, 7-Chloro-8-(4-(1-methyl-1H-pyrazol-4-yl)phenyl)-1,6-naphthyridine-2-carboxamide] | 101 to 500 nM |
| C[C@H](NC(=O)c1ccc2cncc(Br)c2n1)c1ccccc1 [Compound 70, (S)-8-bromo-N-(1-phenylethyl)-1,6-naphthyridine-2-carboxamide] | 101 to 500 nM |
| Nc1ncc(-c2ccc3c(c2)NC(=O)C3)c2cc(C(=O)N3CC(F)(F)C3)ccc12 [Compound 154, 6-(1-amino-6-(3,3-difluoroazetidine-1-carbonyl)isoquinolin-4-yl)indolin-2-one] | 10 to 100 nM |
| CC(C)(O)Cn1cc(-c2ccc(-c3cncc4ccc(C(=O)N5CCOCC5)cc34)cc2)cn1 [Compound 135] | 10 to 100 nM |
| Cc1nc(-c2ccc(-c3cnc(N)c4ccc(C(=O)N5CC(F)(F)C5)cc34)cc2)cn1C [Compound 176, {1-Amino-4-[4-(1,2-dimethyl-1H-imidazol-4-yl)-phenyl]-isoquinolin-6-yl}-(3,3-difluoro-azetidin-1-yl)-methanone] | 10 to 100 nM |
| O=C(c1ccc2cnccc2c1)N1CCC[C@H]1c1ccccc1 [Compound 122, (S)-isoquinolin-6-yl(2-phenylpyrrolidin-1-yl)methanone] | 10 to 100 nM |
| Cn1cc(-c2ccc(-c3cncc4ccc(N5CCCC5=O)cc34)cc2)cn1 [Compound 128, 1-(4-(4-(1-Methyl-1H-pyrazol-4-yl)phenyl)isoquinolin-6-yl)pyrrolidin-2-one] | 10 to 100 nM |
| O=C(c1ccc2cnccc2n1)N1CCC[C@H]1c1ccccc1 [Compound 54, (S)-(1,6-naphthyridin-2-yl)(2-phenylpyrrolidin-1-yl)methanone] | 10 to 100 nM |
| N#Cc1ccc2cncc(-c3ccc4c(c3)CS(=O)(=O)N4)c2c1 [Compound 193, 4-(2,2-dioxido-1,3-dihydrobenzo[c]isothiazol-5-yl)isoquinoline-6-carbonitrile] | 10 to 100 nM |
| CN1C(=O)Cc2ccc(-c3cncc4ccc(C(=O)N5CC(F)(F)C5)cc34)cc21 [Compound 163, 6-[6-(3,3-Difluoro-azetidine-1-carbonyl)-isoquinolin-4-yl]-1-methyl-1,3-dihydro-indol-2-one] | 10 to 100 nM |
| Cn1cc(-c2ccc(-c3cncc4ccc(N5CCNC(=O)C5)cc34)cc2)cn1 [Compound 116, 4-{4-[4-(1-Methyl-1H-pyrazol-4-yl)-phenyl]-isoquinolin-6-yl}-piperazin-2-one] | 10 to 100 nM |
| Cn1ncc2cc(-c3cncc4ccc(C#N)cc34)ccc21 [Compound 120, 4-(1-methyl-1H-indazol-5-yl)isoquinoline-6-carbonitrile] | 10 to 100 nM |
| O=C1Cc2ccc(-c3cncc4ccc(C(=O)N5CC(F)(F)C5)cc34)cc2N1 [Compound 146, 6-(6-(3,3-difluoroazetidine-1-carbonyl)isoquinolin-4-yl)indolin-2-one] | 10 to 100 nM |
| Cn1cc(-c2ccc(-c3cncc4ccc(C(=O)NCc5ccc(C(F)(F)F)cc5)nc34)cc2)cn1 [Compound 87, 8-(4-(1-methyl-1H-pyrazol-4-yl)phenyl)-N-(4-(trifluoromethyl)benzyl)-1,6-naphthyridine-2-carboxamide] | 10 to 100 nM |

Next, values leading:

| IC50 | Structure (SMILES) |
| --- | --- |
| < 10 nM | Cn1cc(-c2ccc(-c3cncc4ccc(NS(C)(=O)=O)nc34)cc2)cn1 [Compound 2, N-(8-(4-(1-Methyl-1H-pyrazol-4-yl)phenyl)-1,6-naphthyridin-2-yl)methanesulfonamide] |
| < 10 nM | COC1CN(C(=O)c2ccc3cncc(-c4ccc(-c5cnn(C(C)C)c5)cc4)c3n2)C1 [Compound 153, (8-(4-(1-isopropyl-1H-pyrazol-4-yl)phenyl)-1,6-naphthyridin-2-yl)(3-methoxyazetidin-1-yl)methanone] |
| < 10 nM | Cc1cncc2ccc(C(=O)N[C@H](C)c3ccccc3)nc12 [Compound 36, (R)-8-methyl-N-(1-phenylethyl)-1,6-naphthyridine-2-carboxamide] |
| 10 to 100 nM | Cn1cc(-c2ccc(-c3cncc4ccc(C(=O)N5CC(C)(F)C5)cc34)cc2)cn1 [Compound 186, (3-fluoro-3-methylazetidin-1-yl)(4-(4-(1-methyl-1H-pyrazol-4-yl)phenyl)isoquinolin-6-yl)methanone] |
| 10 to 100 nM | Cn1cc(-c2ccc(-c3cncc4ccc(C(=O)N5CCC(F)(F)C5)cc34)cc2)cn1 [Compound 195, (3,3-difluoropyrrolidin-1-yl)(4-(4-(1-methyl-1H-pyrazol-4-yl)phenyl)isoquinolin-6-yl)methanone] |
| 10 to 100 nM | Nc1ncc(-c2ccc3c(c2)CS(=O)(=O)N3)c2nc(C(=O)N3CCC(F)(F)C3)ccc12 [Compound 50, (5-Amino-8-(2,2-dioxido-1,3-dihydrobenzo[c]isothiazol-5-yl)-1,6-naphthyridin-2-yl)(3,3-difluoropyrrolidin-1-yl)methanone] |
| < 10 nM | CNC(=O)c1ccc2cncc(-c3ccc4c(c3)N(C)C(=O)C4)c2n1 [Compound 15, 8-(1-methyl-2-oxo-2,3-dihydro-1H-indol-6-yl)-[1,6]naphthyridine-2-carboxylic acid methylamide] |
| < 10 nM | Cn1cc(-c2ccc(-c3cncc4ccc(C(=O)N5CCC5)cc34)cc2)cn1 [Compound 181, azetidin-1-yl(4-(4-(1-methyl-1H-pyrazol-4-yl)phenyl)isoquinolin-6-yl)methanone] |
| < 10 nM | C[C@@H](NC(=O)c1ccc2cncc(-c3ccc(-c4cnn(C)c4)cc3)c2n1)c1ccccc1 [Compound 24, (R)-8-(4-(1-methyl-1H-pyrazol-4-yl)phenyl)-N-(1-phenylethyl)-1,6-naphthyridine-2-carboxamide] |
| 10 to 100 nM | Cn1cc(-c2ccc(-c3cncc4ccc(C(=O)N5CCCC(F)(F)C5)nc34)cc2)cn1 [Compound 82, (3,3-difluoropiperidin-1-yl)(8-(4-(1-methyl-1H-pyrazol-4-yl)phenyl)-1,6-naphthyridin-2-yl)methanone] |
| < 10 nM | CN1c2ccc(-c3cncc4ccc(C(=O)N5CCNCC5)nc34)cc2CS1(=O)=O [Compound 18, [8-(1-Methyl-2,2-dioxo-2,3-dihydro-1H-benzo[c]isothiazol-5-yl)-[1,6]naphthyridin-2-yl]-piperazin-1-yl-methanone] |
| < 10 nM | Cn1cc(-c2ccc(-c3cncc4ccc(C(=O)N5CCNCC5)cc34)cc2)cn1 [Compound 102, (4-(4-(1-methyl-1H-pyrazol-4-yl)phenyl)isoquinolin-6-yl)(piperazin-1-yl)methanone] |
| < 10 nM | Cn1cc(-c2ccc(-c3cncc4ccc(C(N)=O)nc34)c(F)c2)cn1 [Compound 14, 8-(2-fluoro-4-(1-methyl-1H-pyrazol-4-yl)phenyl)-1,6-naphthyridine-2-carboxamide] |
| < 10 nM | Cc1cc2cncc(-c3ccc4c(c3)CS(=O)(=O)N4C)c2nc1C(=O)NC1CC1 [Compound 28, 3-Methyl-8-(1-methyl-2,2-dioxo-2,3-dihydro-1H-benzo[c]isothiazol-5-yl)-[1,6]naphthyridine-2-carboxylic acid cyclopropylamide] |
| < 10 nM | CNC(=O)c1ccc2c(N)ncc(-c3ccc4c(c3)CS(=O)(=O)N4C)c2n1 [Compound 32, 5-Amino-8-(1-methyl-2,2-dioxo-2,3-dihydro-1H-benzo[c]isothiazol-5-yl)-[1,6]naphthyridine-2-carboxylic acid methylamide] |
